US7718641B2, “Pyrrolo [3,4-H] isoquinoline compounds and methods for modulating gated ion channels” (Aros Pharma ApS, priority 2005, dated 2010)

Tests used:
[1] = biological target: T1, heteromeric hASIC1a+3 (Homo sapiens, UniProt P78348+Q9UHC3); assay: Two-electrode voltage clamp in Xenopus laevis oocytes expressing heteromeric hASIC1a+3; type: cell-based; set-up: expressed in transfected cells; settings: 30 μM, OpusExpress
T1 sequence (P78348 1-528): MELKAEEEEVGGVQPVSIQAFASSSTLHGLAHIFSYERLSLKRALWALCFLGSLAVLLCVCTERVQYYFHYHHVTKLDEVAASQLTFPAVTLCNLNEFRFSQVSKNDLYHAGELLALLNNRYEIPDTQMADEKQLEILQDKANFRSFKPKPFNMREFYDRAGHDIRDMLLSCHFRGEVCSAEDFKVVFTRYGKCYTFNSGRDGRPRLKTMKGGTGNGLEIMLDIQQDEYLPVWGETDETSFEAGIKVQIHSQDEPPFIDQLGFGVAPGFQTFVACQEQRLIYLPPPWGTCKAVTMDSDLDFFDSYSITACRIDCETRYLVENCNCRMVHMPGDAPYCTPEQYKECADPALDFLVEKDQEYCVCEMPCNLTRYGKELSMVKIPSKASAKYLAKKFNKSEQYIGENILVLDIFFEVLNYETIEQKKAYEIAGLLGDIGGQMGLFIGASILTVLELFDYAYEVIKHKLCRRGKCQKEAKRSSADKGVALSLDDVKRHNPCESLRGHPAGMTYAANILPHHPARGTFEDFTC
T1 sequence (Q9UHC3 1-531): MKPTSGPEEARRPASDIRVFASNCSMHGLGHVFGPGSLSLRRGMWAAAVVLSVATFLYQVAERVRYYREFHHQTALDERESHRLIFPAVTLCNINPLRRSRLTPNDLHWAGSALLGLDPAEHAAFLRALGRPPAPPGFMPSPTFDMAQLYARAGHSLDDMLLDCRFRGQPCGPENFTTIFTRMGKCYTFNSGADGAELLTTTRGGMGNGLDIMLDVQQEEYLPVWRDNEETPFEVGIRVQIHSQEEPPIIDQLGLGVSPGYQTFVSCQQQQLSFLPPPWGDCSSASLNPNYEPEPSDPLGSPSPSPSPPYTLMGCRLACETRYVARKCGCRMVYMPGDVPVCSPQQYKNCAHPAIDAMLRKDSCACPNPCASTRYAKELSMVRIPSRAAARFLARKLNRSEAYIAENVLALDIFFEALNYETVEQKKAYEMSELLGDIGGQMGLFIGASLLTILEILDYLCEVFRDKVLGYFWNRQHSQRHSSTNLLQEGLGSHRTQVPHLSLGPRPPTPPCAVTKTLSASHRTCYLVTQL
Protocol: (§1) Two-electrode voltage clamp electrophysiological assays in Xenopus laevis oocytes expressing gated ion channels are performed as follows:
(§2) Oocytes are surgically removed from adult Xenopus laevis and treated for 2 h at room temperature with 1 mg/ml type I collagenase (Sigma) in Barth's solution under mild agitation. Selected oocytes at stage IV-V are defolliculated manually before nuclear microinjection of 2.5-5 ng of a suitable expression vector, such as pcDNA3, comprising the nucleotide sequence encoding a gated ion channel subunit protein. In such an experiment, the oocytes express homomultimeric proton-gated ion channels on their surface. In an alternate experiment, one, two, three or more vectors comprising the coding sequences for distinct gated ion channel subunits are co-injected in the oocyte nuclei. […] After 2-4 days of expression at 19° C. in Barth's solution containing […] gentamicin and 1.8 mM CaCl2, gated ion channels are activated by applying an acidic solution (pH <7) and currents are recorded in a two electrode voltage-clamp configuration, using an OC-725B amplifier (Warner Instruments). Currents are acquired and digitized at 500 Hz on an Apple Imac G3 computer with an A/D NB-MIO-16XL interface (National Instruments) and recorded traces are post-filtered at 100 Hz in Axograph (Axon Instruments) (Neher, E. and Sakmann, B. (1976) Nature 260:799-802). […]

[2] = biological target: T2, homomeric hASIC1a (Homo sapiens, UniProt P78348); assay: Two-electrode voltage clamp in Xenopus laevis oocytes expressing homomeric hASIC1a; type: cell-based; settings: 30 μM, OpusExpress
T2 construct: expressed in transfected cells; host or cells: Xenopus laevis oocytes (nuclear cDNA microinjection)
T2 sequence (P78348 1-528): T1 sequence (P78348 1-528)
Protocol: as §1, §2

effect on inward currents elicited by pH 6.5, heteromeric hASIC1a+3 [1]: effectively modulates the activity
effect on inward currents elicited by pH 6.5, homomeric hASIC1a [2]: effectively modulates the activity
Structure (SMILES): COc1ccc(F)cc1-c1cc2c(c3c1CCN(C)C3)NC(=O)/C2=N/O [Compound A, 5-(5-fluoro-2-methoxyphenyl)-6,7,8,9-tetrahydro-3-(hydroxyimino)-8-methyl-1H-pyrrolo[3,2-h]isoquinoline-2(3H)-one]
